Data taken from PMC12241370, “Anti-biofilm peptides can rescue fluconazole and amphotericin B efficacies against Candida albicans” (Scientific Reports, 2025).

Tests used:
[1] = tested on: C. albicans reference strain; test: Permeabilization assay with fluorescent dyes of increasing size; format: cell-based, Candida albicans; settings: FITC, propidium iodide, ATTO 488 alkyne, rhodamine phalloidin; Pom-1 or Cm-p5 at 2.5 µg/mL and 10 µg/mL, 2 h, 37 °C; Triton X-100 0.2% (w/v) solution, last 10 min; fluorescence; triplicate
Method: For this, 2.5 × 10^4 cells/mL of the C. albicans reference strain were incubated in 200 µL of RPMI-1640 medium supplemented with either Pom-1 or Cm-p5 at final concentrations of 2.5 µg/mL and 10 µg/mL and incubated for 2 h at 37 °C. For the positive control, 100 µL of a 0.2% (w/v) solution of Triton X-100 was added 10 min prior to the end of the 2 h incubation time and for the negative control, no agent was added (untreated). After incubation, the tubes were centrifuged at 11,000 ×g and the supernatant was discarded. Afterwards, the cells were washed with once with PBS and after addition of 5 µL dye and 195 µL PBS (final concentration of dye: 5 µL/mL) the cell suspension was centrifuged at 11,000 ×g for 2 min. […] Subsequently the yeast cells were washed 3x with PBS, resuspended in 200 µL of PBS and pipetted into flat-bottomed polystyrene microtiter plates with 96 wells (Sarstedt AG and Co. KG, Nümbrecht, Germany) and fluorescence measurements were conducted at an excitation wavelength of 498 nm (FITC), 535 nm (propidium iodide), 500 nm (Atto488), and 540 nm (rhodamine phalloidin) and an emission of 517 nm (FITC), 617 nm (propidium iodide), 520 nm (Atto488), 565 nm (rhodamine phalloidin) with a Tecan infinite F200 microplate reader (Tecan Group Ltd., Männedorf, Switzerland). […]

[2] = tested on: human dermal fibroblasts (HDF); test: Resazurin viability assay for cell culture (HDF); format: cell-based; settings: detergent cell lysis control
Method: (§1) Adenocarcinomic human alveolar basal epithelial cells (A549) (purchased from the ATCC, Manassas, VA, USA, CRM-CCL-185)[67] and human dermal fibroblasts (HDFs) (purchased from tebu-bio GmbH, Offenbach, Germany) were used[68] for the experiments. Cultivation was conducted in DMEM with FBS (10% (w/v), 15% (w/v)), MEM NEAAs (1% (w/v)), and penicillin–streptomycin (100 U/mL, 1% (w/v)) at 37 °C in an incubator containing 5% CO2. To detect the viability of human cells, a resazurin reduction assay was performed. For this, 2 × 10^4 cells per well of a 96-well plate were incubated in 200 µL DMEM with additives at 37 °C and 5% CO2. After removing the medium, 100 µL of the medium and 100 µL of a peptide/antifungal solution (2.5 µg/mL, 25 µg/mL) were added. After incubation for 24 h at 37 °C and 5% CO2, 20 µL of a resazurin solution (0.15 mg/mL) were added into each well, and the cells were incubated again for 24 h at 37 °C and 5% CO2. Fluorescence measurement (excitation wavelength—535 nm, emission wavelength—595 nm) of the converted resorufin was then performed using a Tecan Infinite F200 microplate reader (Tecan Group Ltd., Männedorf, Switzerland).

A549 cells = test: Resazurin viability assay for cell culture (A549); format: cell-based, human; settings: detergent cell lysis control
Method: as §1

[3] = tested on: C. albicans laboratory strain and clinical isolates; test: Resazurin reduction viability assay of planktonic cells; format: cell-based, Candida albicans; settings: for strains whose viability could not be reduced to zero: 1x ED: 2 µg/mL amphotericin B, 8 µg/mL fluconazole
Method: KG, Nümbrecht, Germany) at 37 °C with shaking at 900 rpm on an Eppendorf shaker. The quantification of viable yeast cells was carried out using a Resazurin-Reduction-Assay[86]. Accordingly, the cells were exposed to 20 µL of a 0.15 mg/mL resazurin solution for 2 h and subsequently the amount of converted resorufin was determined with fluorescence measurements at an excitation wavelength of 535 and an emission of 595 nm with a Tecan infinite F200 microplate reader (Tecan Group Ltd., Männedorf, Switzerland).

[4] = tested on: C. albicans clinical isolate 23; test: Resazurin viability assay of clinical isolate 23; format: cell-based, Candida albicans; settings: antifungal alone at 1x ED
Method: The viability of C. albicans cells was assessed following the guidelines of the Clinical and Laboratory Standards Institute (M27-A3)[86]. Accordingly, 2.5 × 10^4 yeast cells/mL were cultured in 200 µL of RPMI-1640 medium in the presence of peptide (Pom-1 to Pom-1 F) and amphotericin B or fluconazole in different concentrations (0.1x ED/MBIC and 0.5x ED/MBIC) in flat-bottomed polystyrene microtiter plates with 96 wells (Sarstedt AG and Co. KG, Nümbrecht, Germany) at 37 °C with shaking at 900 rpm on an Eppendorf shaker. The quantification of viable yeast cells was carried out using a Resazurin-Reduction-Assay[86]. Accordingly, the cells were exposed to 20 µL of a 0.15 mg/mL resazurin solution for 2 h and subsequently the amount of converted resorufin was determined with fluorescence measurements at an excitation wavelength of 535 and an emission of 595 nm with a Tecan infinite F200 microplate reader (Tecan Group Ltd., Männedorf, Switzerland).
Figure S4. Inherent resilience to aggregation by isolate 23 and marginal reduction of viability by further raised concentrations of antifungal and peptide combinations. (A) Microscopic analysis using a Leica DMi8 coded (Leica Microsystems CMS GmbH, Wetzlar, Germany) microscope of C. albicans laboratory strain and clinical isolate 23 with and without treatment with Pom-1. The pictures were taken after an incubation time of 2 h. […]

[5] = tested on: C. albicans laboratory strain and clinical isolates; test: Biofilm formation, crystal violet assay; format: cell-based, Candida albicans
Method: In order to evaluate the antifungal effects of the Pom-1 derivatives combined with amphotericin B or fluconazole on biofilm formation, a crystal violet assay was performed[84],[85]. For this, 2.5 × 10^4 yeast cells/mL were incubated in 200 µL of RPMI-1640 medium supplemented with amphotericin B, fluconazole and Pom-1 to Pom-1 F in flat-bottomed polystyrene microtiter plates with 96 wells for 24 h at 37 °C without agitation. Subsequently, the planktonic phase was removed, the remaining cells attached to the wells were washed twice with 200 µL of demineralized water and exposed to 200 µL of 0.1% (w/v) crystal violet solution for 15 min. Afterwards, the solution was removed and the cells were washed again twice with 200 µL of demineralized water and the plates were left to dry for 24 h at 25 °C. To dissolve the stain, 200 µL of 30% acetic acid was added and transferred to a new plate after 15 min. […] By comparing the resulting data against the untreated controls, the efficacy of the agents could be assessed.

Compound	permeabilization of C. albicans cells for fluorescent dyes [1]	cell viability of HDF cells [2]	cell viability of A549 cells (A549 cells)	strains whose viability could not be reduced to zero [3]	isolates with viability reduction (death count) ([3]; fluconazole only, 0.1x ED)	ratio of completely killed C. albicans isolates ([3]; fluconazole only, 1x ED (8 µg/mL), 28 strains)	effect on isolate 23 [4]	strains with complete biofilm inhibition (death count) ([5]; amphotericin B only, 0.1x ED)	strains with complete biofilm inhibition (death count) ([5]; antifungal only, 0.5x ED)	strains with complete biofilm inhibition ([5]; antifungal only, 0.5x ED, 21 strains)	strains with complete inhibition of biofilms ([5]; antifungal only, 1x ED (2 µg/mL), 21 strains)	strains with complete inhibition of biofilms (death count) ([5]; antifungal only, 1x ED (2 µg/mL), crystal violet, 24 h, 37 °C, triplicate)	strains killed completely ([3]; amphotericin B only, 0.5x ED, planktonic cells, 28 strains)	isolates against which fully active (zero viability) ([3]; amphotericin B only, 1x ED (2 µg/mL), planktonic cells, 28 strains)	isolates against which fully active (death count) ([3]; amphotericin B only, 1x ED (2 µg/mL), planktonic cells, resazurin, triplicate)
Triton X-100	permeabilized Candida cells for all dyes	zero	zero	–	–	–	–	–	–	–	–	–	–	–	–
OC(Cn1cncn1)(Cn1cncn1)c1ccc(F)cc1F [fluconazole]	–	–	–	12 of 28 strains	3 isolates of 28	57%	unaffected	–	–	–	–	–	–	–	–
C[C@@H]1[C@H](O)[C@@H](C)/C=C/C=C/C=C/C=C/C=C/C=C/C=C/[C@H](O[C@@H]2O[C@H](C)[C@@H](O)[C@H](N)[C@@H]2O)C[C@@H]2O[C@](O)(C[C@@H](O)C[C@@H](O)[C@H](O)CC[C@@H](O)C[C@@H](O)CC(=O)O[C@H]1C)C[C@H](O)[C@H]2C(=O)O [amphotericin B]	–	–	–	21 of 28 strains	–	–	unaffected	totally failed	2 of 21	9.5%	52%	11 of 21	7%	25%	7 of 28
